Experimental data reported in the OligoGym collection.
HELM strings list units from the 5' end as sugar, base in round brackets, then linkage (d deoxyribose, r ribose, m 2'-O-methyl, p phosphodiester). Strings are as the collection lists them, not checked against the first reports. ss, as = sense and antisense strand

Conditions: siRNA
Note: test system not given here.

Substance: RNA1{m(C)p.r(U)p.m(C)p.r(C)p.m(C)p.r(C)p.m(A)p.r(G)p.m(U)p.r(C)p.m(U)p.r(C)p.m(U)p.r(C)p.m(U)p.r(U)p.m(A)p.r(A)p.m(A)p.r(T)p.r(T)}|RNA2{r(U)p.r(U)p.r(U)p.r(A)p.r(A)p.r(G)p.r(A)p.r(G)p.r(A)p.r(G)p.r(A)p.r(C)p.r(U)p.r(G)p.r(G)p.r(G)p.r(G)p.r(A)p.r(G)p.r(T)p.r(T)}$$$RNA1{StrandType:ss}|RNA2{StrandType:as}$
- target mRNA knockdown: 51%

Substance: RNA1{m(C)p.r(U)p.m(C)p.r(C)p.m(G)p.r(A)p.m(C)p.r(A)p.m(G)p.r(A)p.m(U)p.r(G)p.m(A)p.r(A)p.m(G)p.r(G)p.m(A)p.r(A)p.m(A)p.r(T)p.r(T)}|RNA2{r(U)p.r(U)p.r(U)p.r(C)p.r(C)p.r(U)p.r(U)p.r(C)p.m(A)p.r(U)p.r(C)p.r(U)p.r(G)p.r(U)p.r(C)p.r(G)p.r(G)p.m(A)p.r(G)p.r(T)p.r(T)}$$$RNA1{StrandType:ss}|RNA2{StrandType:as}$
- target mRNA knockdown: 46%

Substance: RNA1{m(C)p.r(U)p.m(C)p.r(C)p.m(U)p.r(U)p.m(C)p.r(A)p.m(U)p.r(U)p.m(C)p.r(C)p.m(A)p.r(G)p.m(C)p.r(C)p.m(U)p.r(A)p.m(U)p.r(T)p.r(T)}|RNA2{r(A)p.r(U)p.r(A)p.r(G)p.r(G)p.r(C)p.r(U)p.r(G)p.r(G)p.r(A)p.r(A)p.r(U)p.r(G)p.r(A)p.r(A)p.r(G)p.r(G)p.r(A)p.r(G)p.r(T)p.r(T)}$$$RNA1{StrandType:ss}|RNA2{StrandType:as}$
- target mRNA knockdown: 51%

Substance: RNA1{m(C)p.r(U)p.m(C)p.r(U)p.m(G)p.r(G)p.m(C)p.r(C)p.m(U)p.m(U)p.r(U)p.r(C)p.m(U)p.r(C)p.m(U)p.r(C)p.m(U)p.r(A)p.m(G)p.r(T)p.r(T)}|RNA2{r(C)p.r(U)p.r(A)p.r(G)p.r(A)p.r(G)p.r(A)p.r(G)p.r(A)p.r(A)p.r(A)p.r(G)p.r(G)p.r(C)p.r(C)p.r(A)p.r(G)p.r(A)p.r(G)p.r(T)p.r(T)}$$$RNA1{StrandType:ss}|RNA2{StrandType:as}$
- target mRNA knockdown: 24%

Substance: RNA1{m(C)p.r(U)p.m(G)p.r(A)p.m(C)p.r(C)p.m(G)p.r(G)p.m(A)p.r(A)p.m(G)p.r(C)p.m(G)p.r(C)p.m(U)p.r(U)p.m(A)p.r(A)p.r(A)p.r(T)p.r(T)}|RNA2{r(U)p.r(U)p.r(U)p.r(A)p.r(A)p.r(G)p.r(C)p.r(G)p.m(C)p.r(U)p.r(U)p.r(C)p.m(C)p.r(G)p.r(G)p.r(U)p.m(C)p.r(A)p.r(G)p.r(T)p.r(T)}$$$RNA1{StrandType:ss}|RNA2{StrandType:as}$
- target mRNA knockdown: 27%

Substance: RNA1{m(G)p.m(A)p.m(G)p.m(G)p.m(A)p.m(A)p.m(G)p.m(A)p.r(U)p.m(G)p.m(A)p.m(G)p.r(U)p.r(U)p.m(G)p.r(U)p.m(A)p.r(C)p.r(C)p.r(T)p.r(T)}|RNA2{r(G)p.r(G)p.r(U)p.r(A)p.r(C)p.r(A)p.r(A)p.r(C)p.r(U)p.r(C)p.r(A)p.r(U)p.r(C)p.r(U)p.r(U)p.r(C)p.r(C)p.r(U)p.r(C)p.r(T)p.r(T)}$$$RNA1{StrandType:ss}|RNA2{StrandType:as}$
- target mRNA knockdown: 70%

Substance: RNA1{m(G)p.m(C)p.m(A)p.m(G)p.m(C)p.m(A)p.m(C)p.m(G)p.m(A)p.m(C)p.m(U)p.m(U)p.m(C)p.m(U)p.m(U)p.m(C)p.m(A)p.m(A)p.m(G)p.r(T)p.r(T)}|RNA2{m(C)p.m(U)p.m(U)p.m(G)p.m(A)p.m(A)p.m(G)p.m(A)p.m(A)p.m(G)p.m(U)p.m(C)p.m(G)p.m(U)p.m(G)p.m(C)p.m(U)p.m(G)p.m(C)p.r(T)p.r(T)}$$$RNA1{StrandType:ss}|RNA2{StrandType:as}$
- target mRNA knockdown: 0%

Substance: RNA1{m(G)p.m(C)p.m(A)p.m(G)p.m(C)p.m(A)p.m(C)p.m(G)p.m(A)p.m(C)p.m(U)p.m(U)p.m(C)p.m(U)p.m(U)p.m(C)p.m(A)p.m(A)p.m(G)p.r(T)p.r(T)}|RNA2{r(C)p.r(U)p.r(U)p.r(G)p.r(A)p.r(A)p.r(G)p.r(A)p.r(A)p.r(G)p.r(U)p.r(C)p.r(G)p.r(U)p.r(G)p.r(C)p.r(U)p.r(G)p.r(C)p.r(T)p.r(T)}$$$RNA1{StrandType:ss}|RNA2{StrandType:as}$
- target mRNA knockdown: 25%
